{"source": "patent US20100311821A1", "about": "“Synthetic vector” (priority 2009, published 2010)", "tested_on": "λ-DNA", "assay": "AFM imaging of DNA complexes", "assay_type": "physicochemical, lambda phage", "conditions": "50 μg/ml λ-DNA, stoichiometric KWK 64 μM (16 μM PP4, 8 μM PP8), 10 mM sodium cacodylate buffer", "experimental": "Preparation of DNA complexes. […] The mixture solution was vortexed for 30 seconds and allowed to equilibrate at room temperature for a few hours. The final DNA concentration was set at 50 μg/ml.\nCharacterization of DNA complexes structure by Atomic Force Microscopy. DNA complexes were deposited on freshly cleaved mica and then allowed to air dry. Tapping mode AFM imaging was performed on a Digital Instruments Nanoscope […] scanning probe microscope with a multimode head. Silicon probes (VistaProbes T300) with spring constant 40 N/m, resonant frequency, 300 kHz was used to obtain all images.\nLong linear lambda phage DNA, λ-DNA, (double-stranded, 48 kbp, MW=3×10^7 Da, contour length—17 μm) in dilute aqueous solution (100 μg ml^−1 DNA in 10 mM pH=6.5 sodium cacodylate buffer containing 0.5 mM EDTA) was used for packaging studies. […] The final DNA concentration was set at 50 μg ml^−1 throughout the studies in this example. The DNA-KWK, DNA-PP4 and DNA-PP8 complex structures were investigated by atomic force microscope (“AFM”) on mica substrates.", "data": [{"substance": "lysine-tryptophan-lysine [KWK]", "values": [{"measurement": "DNA compaction (AFM)", "value": "No DNA compaction"}]}]}
